Measurements from patent publication US12441691B2 (Cytokinetics, Inc., priority 2020, dated 2025).

Tested on: rabbit skeletal myofibrils (fast skeletal myofibrils)
Assay: Activation of fast skeletal myofibrils (PUMA assay, AC1.4)
Type: biochemical
Details: calcium at pCa25, AC1.4 = concentration at which the compound increased the enzymatic activity
Method: Preparation of fast skeletal myofibrils: Rabbit skeletal myofibrils were prepared based upon the method of Herrmann et al. (Biochem. 32(28):7255-7263(1993). Myofibrils were prepared from rabbit psoas muscle purchased from Pel-Freez Biologicals (Arkansas) within 2 days of ordering, stored on ice. Minced muscle was homogenized in 10 volumes of ice-cold “standard” buffer (50 mM Tris, pH 7.4, 0.1 M KOAc, 5 mM KCl, 2 mM dithiothreitol (DTT), 0.2 mM phenylmethylsulfonyl fluoride (PMSF), 10 μM leupeptin, 5 μM pepstatin, and 0.5 mM sodium azide) containing 5 mM ethylenediaminetetraacetic acid (EDTA) and 0.5% Triton X-100 using an Omni-Macro homogenizer. Myofibrils were recovered by low speed centrifugation (3000 rpm for 10 minutes) and washed 2 times in the Triton X-100 containing buffer to ensure removal of cellular membrane. Following the Triton washes, myofibrils were washed 3 times in “standard” buffer containing 2 mM magnesium acetate. A final wash in assay buffer (12 mM piperazine-1,4-bis(2-ethanesulfonic acid) (PIPES), pH 6.8, 60 mM KCl, 1 mM DTT) was performed and brought to 10% sucrose for flash freezing in liquid nitrogen and storage at −80° C.
Activation of Fast Skeletal Myofibrils: Fast fiber activators were identified by measuring the enzymatic activity of muscle myofibril preparations using the proprietary PUMA (trademark) (see, e.g., U.S. Pat. Nos. 6,410,254, 6,743,599, 7,202,051, and 7,378,254) assay system. Myofibril preparations consisted of rabbit skeletal muscle (approximately 90% fast fibers) that had been mechanically homogenized and washed with a detergent (Triton X-100) to remove cellular membranes. This preparation retained all of the sarcomeric components in a native conformation and the enzymatic activity was still regulated by calcium. Compounds were tested using a myofibril suspension and a level of calcium sufficient to increase enzymatic activity of the myofibrils to 25% of their maximal rate (termed pCa25). Enzymatic activity was tracked via a pyruvate kinase and lactate dehydrogenase-coupled enzyme system. This assay regenerates myosin-produced ADP into ATP by oxidizing NADH, producing an absorbance change at 340 nm. The buffering system was 12 mM PIPES, 2 mM MgCl2, 1 mM DTT at pH 6.8 (PM12 buffer). […] In Table 9, “Example Compound” refers to the compound labeled with the same number in Table 2.

Row | Compound | AC1.4 [µM]
1 | CC[C@H](C)[C@H]1C(=O)Nc2cc(F)ccc2CN1C(=O)NC [Compound 77, (S)-3-((S)-sec-butyl)-8-fluoro-N-methyl-2-oxo-1,2,3,5-tetrahydro-4H-benzo[e][1,4]diazepine-4-carboxamide] | 0.19
2 | CC[C@H](C)[C@H]1C(=O)Nc2c(F)cccc2CN1C(=O)NC [Compound 78, (S)-3-((S)-sec-butyl)-9-fluoro-N-methyl-2-oxo-1,2,3,5-tetrahydro-4H-benzo[e][1,4]diazepine-4-carboxamide] | 0.50
3 | CC[C@H](C)[C@H]1C(=O)Nc2c(F)cccc2CN1C(=O)N1CC(O)C1 [Compound 79, (S)-3-((S)-sec-butyl)-9-fluoro-4-(3-hydroxyazetidine-1-carbonyl)-1,3,4,5-tetrahydro-2H-benzo[e][1,4]diazepin-2-one] | 0.32
4 | CC[C@H](C)[C@H]1C(=O)Nc2cncc(F)c2CN1C(=O)c1cnn(C)c1 [Compound 80, (S)-3-((S)-sec-Butyl)-6-fluoro-4-(1-methyl-1H-pyrazole-4-carbonyl)-1,3,4,5-tetrahydro-2H-pyrido[3,4-e][1,4]diazepin-2-one] | 0.47
5 | CC[C@H](C)[C@H]1C(=O)Nc2cncc(C)c2CN1C(N)=O [Compound 81, (S)-3-((S)-sec-butyl)-6-methyl-2-oxo-1,2,3,5-tetrahydro-4H-pyrido[3,4-e][1,4]diazepine-4-carboxamide] | 3.80
6 | CC[C@H](C)[C@H]1C(=O)Nc2ccccc2CN1C(=O)c1cc2cnccc2[nH]1 [Compound 83, (S)-3-((S)-sec-butyl)-4-(1H-pyrrolo[3,2-c]pyridine-2-carbonyl)-1,3,4,5-tetrahydro-2H-benzo[e][1,4]diazepin-2-one] | 0.03
7 | CC[C@H](C)[C@H]1C(=O)Nc2ccccc2CN1C(=O)c1ccn(C)n1 [Compound 84, (S)-3-((S)-sec-butyl)-4-(1-methyl-1H-pyrazole-3-carbonyl)-1,3,4,5-tetrahydro-2H-benzo[e][1,4]diazepin-2-one] | 0.09
8 | CC[C@H](C)[C@H]1C(=O)Nc2ccccc2CN1C(=O)c1ccc(C(N)=O)[nH]1 [Compound 85, 5-((S)-3-((S)-sec-butyl)-2-oxo-2,3,4,5-tetrahydro-1H-benzo[e][1,4]diazepine-4-carbonyl)-1H-pyrrole-2-carboxamide] | 0.01
9 | CC[C@H](C)[C@H]1C(=O)Nc2ccccc2CN1C(=O)[C@H](C)O [Compound 86, (S)-3-((S)-sec-butyl)-4-((S)-2-hydroxypropanoyl)-1,3,4,5-tetrahydro-2H-benzo[e][1,4]diazepin-2-one] | 1.81
10 | CC[C@H](C)[C@H]1C(=O)Nc2ccccc2CN1/C(=N/C#N)NC [Compound 87, (S,E)-3-((S)-sec-butyl)-N′-cyano-N-methyl-2-oxo-1,2,3,5-tetrahydro-4H-benzo[e][1,4]diazepine-4-carboximidamide] | 0.07
11 | CC(C)[C@H]1C(=O)Nc2ccccc2CN1c1nccc(=O)[nH]1 [Compound 88, (S)-3-isopropyl-4-(6-oxo-1,6-dihydropyrimidin-2-yl)-1,3,4,5-tetrahydro-2H-benzo[e][1,4]diazepin-2-one] | 1.22
12 | CC[C@H](C)[C@H]1C(=O)Nc2ccccc2CN1S(=O)(=O)c1ccc(F)cc1 [Compound 89, (S)-3-((S)-sec-butyl)-4-((4-fluorophenyl)sulfonyl)-1,3,4,5-tetrahydro-2H-benzo[e][1,4]diazepin-2-one] | 0.18
13 | CC(=O)N1Cc2ccccc2NC(=O)[C@@H]1C1CCCCCC1 [Compound 91, (S)-4-acetyl-3-cycloheptyl-1,3,4,5-tetrahydro-2H-benzo[e][1,4]diazepin-2-one] | 0.08
14 | O=C1Nc2ccccc2CN(C(=O)CO)[C@H]1C1CCCCC1 [Compound 92, (S)-3-cyclohexyl-4-(2-hydroxyacetyl)-1,3,4,5-tetrahydro-2H-benzo[e][1,4]diazepin-2-one] | 0.40
15 | CC[C@H](C)[C@H]1C(=O)Nc2ccccc2CN1C(=O)Nc1ccc(=O)n(C)c1 [Compound 93, (S)-3-((S)-sec-butyl)-N-(1-methyl-6-oxo-1,6-dihydropyridin-3-yl)-2-oxo-1,2,3,5-tetrahydro-4H-benzo[e][1,4]diazepine-4-carboxamide] | 0.13
16 | CC[C@H](C)[C@H]1C(=O)Nc2ccccc2CN1C(=O)Nc1cccn(C)c1=O [Compound 94, (S)-3-((S)-sec-butyl)-N-(1-methyl-2-oxo-1,2-dihydropyridin-3-yl)-2-oxo-1,2,3,5-tetrahydro-4H-benzo[e][1,4]diazepine-4-carboxamide] | 0.15
17 | CC[C@H](C)[C@H]1C(=O)Nc2ccccc2CN1C(=O)c1c[nH]c(=O)[nH]1 [Compound 95, (S)-3-((S)-sec-butyl)-4-(2-oxo-2,3-dihydro-1H-imidazole-4-carbonyl)-1,3,4,5-tetrahydro-2H-benzo[e][1,4]diazepin-2-one] | 0.04
18 | CC[C@H](C)[C@H]1C(=O)Nc2ccccc2CN1C(=O)Nc1cccnc1 [Compound 99, (S)-3-((S)-sec-butyl)-2-oxo-N-(pyridin-3-yl)-1,2,3,5-tetrahydro-4H-benzo[e][1,4]diazepine-4-carboxamide] | 0.05
19 | CC[C@H](C)[C@H]1C(=O)Nc2ccccc2CN1C(=O)Nc1cn[nH]c1 [Compound 101, (S)-3-((S)-sec-butyl)-2-oxo-N-(1H-pyrzol-4-yl)-1,2,3,5-tetrahydro-4H-benzo[e][1,4]diazepine-4-carboxamide] | 0.05
20 | CC[C@H](C)[C@H]1C(=O)Nc2ccccc2CN1C(=O)N1CC(CO)C1 [Compound 102, (S)-3-((S)-sec-butyl)-4-(3-(hydroxymethyl)azetidine-1-carbonyl)-1,3,4,5-tetrahydro-2H-benzo[e][1,4]diazepin-2-one] | 0.37
21 | CC[C@H](C)[C@H]1C(=O)Nc2ccccc2CN1C(=O)N1CC[C@H]1C(N)=O [Compound 103, (S)-1-((S)-3-((S)-sec-butyl)-2-oxo-2,3,4,5-tetrahydro-1H-benzo[e][1,4]diazepine-4-carbonyl)azetidine-2-carboxamide] | 1.22
22 | CC[C@H](C)[C@H]1C(=O)Nc2ccccc2CN1C(=O)c1c[nH]cn1 [Compound 104, (S)-3-((S)-sec-butyl)-4-(1H-imidazole-4-carbonyl)-1,3,4,5-tetrahydro-2H-benzo[e][1,4]diazepin-2-one] | 0.08
23 | CC[C@H](C)[C@H]1C(=O)Nc2ccccc2CN1C(=O)c1ccn[nH]1 [Compound 105, (S)-3-((S)-sec-butyl)-4-(1H-pyrazole-5-carbonyl)-1,3,4,5-tetrahydro-2H-benzo[e][1,4]diazepin-2-one] | 0.10
24 | CC[C@H](C)[C@H]1C(=O)Nc2ccccc2CN1C(=O)[C@@H]1CCCO1 [Compound 106, (S)-3-((S)-sec-butyl)-4-((S)-tetrahydrofuran-2-carbonyl)-1,3,4,5-tetrahydro-2H-benzo[e][1,4]diazepin-2-one] | 0.89
25 | CC[C@H](C)[C@H]1C(=O)Nc2ccccc2CN1C(=O)[C@H]1CCCO1 [Compound 107, (S)-3-((S)-sec-butyl)-4-((R)-tetrahydrofuran-2-carbonyl)-1,3,4,5-tetrahydro-2H-benzo[e][1,4]diazepin-2-one] | 0.29
26 | CC[C@H](C)[C@H]1C(=O)Nc2ccccc2CN1C(=O)c1cnccn1 [Compound 108, (S)-3-((S)-sec-butyl)-4-(pyrazine-2-carbonyl)-1,3,4,5-tetrahydro-2H-benzo[e][1,4]diazepin-2-one] | 0.19
27 | CC[C@H](C)[C@H]1C(=O)Nc2ccccc2CN1C(=O)c1cnc(C(N)=O)cn1 [Compound 109, 5-((S)-3-((S)-sec-butyl)-2-oxo-2,3,4,5-tetrahydro-1H-benzo[e][1,4]diazepine-4-carbonyl)pyrazine-2-carboxamide] | 0.17
28 | CC[C@H](C)[C@H]1C(=O)Nc2ccccc2CN1C(=O)CS(N)(=O)=O [Compound 110, 2-((S)-3-((S)-sec-butyl)-2-oxo-1,2,3,5-tetrahydro-4H-benzo[e][1,4]diazepin-4-yl)-2-oxoethane-1-sulfonamide] | 1.36
29 | CC[C@H](C)[C@H]1C(=O)Nc2ccccc2CN1C(=O)CS(C)(=O)=O [Compound 111, (S)-3-((S)-sec-butyl)-4-(2-(methylsulfonyl)acetyl)-1,3,4,5-tetrahydro-2H-benzo[e][1,4]diazepin-2-one] | 4.90
30 | CC[C@H](C)[C@H]1C(=O)Nc2ccccc2CN1/C(N)=N/S(C)(=O)=O [Compound 112, (S,E)-3-((S)-sec-butyl)-N′-(methylsulfonyl)-2-oxo-1,2,3,5-tetrahydro-4H-benzo[e][1,4]diazepine-4-carboximidamide] | 0.81
